Where a SMILES comes first, the peptide text is derived from it.
Columns and labels:
[1] = tested on: hippocampal neurons intoxicated with Aβ1-42 oligomers; experiment: Protection against Abeta neurotoxicity in primary hippocampal neurons in microfluidic chambers; assay type: cell-based, mice; details: Aβ intoxicated cells not pretreated, 6 h of intoxication, vs non-intoxicated
Text: Hippocampus are micro-dissected from E16 embryos of C57B16/J wt mice (Rene Janvier, France) in cold Gey's Balanced Salt Solution (GBSS, Sigma) supplemented with 0.1% glucose (Life technologies).
Dissected structures are digested with papain (20 U/ML in DMEM, Sigma; St. Louis, Mo., USA) and mechanically dissociated in the presence of DNAse. Hippocampal cells are then rinsed and re-suspended in DMEM (Life Technologies, Inc., Gaithersburg, Md., USA) to a final density of 18 million cells/ml in Neurobasal (Life technologies) and Glutamax (0.1% LifeTechnologies) supplemented with B27 (1/50) and penicilline/sptreptomycine 1% (Gibco).
This cell suspension is then used to fill the reservoirs of microfluidic chambers, as described (Peyrin et al, 2011 Lab Chips 11(21):3663; Deleglise et al, 2014 Acta Neuropathologica Comm. 2: 145). Microfluidic chips are placed in plastic Petri dishes containing H20-EDTA to prevent evaporation and incubated at 37° C. in a humid 5% CO2 atmosphere. The culture medium is renewed every seven days.
Oligomeric form of Aβ1-42 (Tocris Bioscience, MN, USA), is produced according to Stine W B et al (2003) in J Biol Chem 278, pp 11612-11622 and can be controlled by electron microscopy as in Deleglise B et al. in Acta Neuropathol Commun. 2014; 2: 145).
Briefly, Aβ1-42 lyophilized peptides are solubilized at 1 mM in 1, 1, 1, 3, 3, 3,-hexafluoro-2-propanol (HFIP, Sigma Aldrich). After 30 min of incubation at RT, HFIP is evaporated for 12 h under chemical hood and peptides are dried for 1 h (with a Speed Vac at 4° C.). Then, 5 mM Aβ peptide stock solutions are obtained by resolubilization at in dimethylsulfoxide (DMSO, Sigma Aldrich). To obtain oligomers, Aβ peptide stock solution is diluted in cold phenol free DMEM-F12 medium (Life Technologies) to a final concentration of 100 μM. The solution is then incubated 24 h at 4° C. Soluble Aβ oligomer fraction is collected from the supernatant after a centrifugation step at 20 000 g (10 min; 4° C.), and stored at −80° C. until use.
After 18 days of culture in micro fluidic chambers, hippocampal cells are pre-incubated for 1 h with compounds of the invention prior diluted in phenol free DMEM-F12 medium or in phenol free DMEM-F12 medium alone as a control solution. Cells are then intoxicated for 3 h to 6 h or 24 h with 10 or 100 nm of Aβ1-42 oligomers (or with phenol free DMEM-F12 medium alone as a control solution). After the intoxication step, cells are fixed in 4% paraformaldehyde (PFA, Sigma; St. Louis, Mo., USA) for 20 min RT, and labelled as explained below to evaluate synapses status, cell death or axonal degeneration.
Briefly, after the fixation step, cultures cells are washed twice with PBS+Azide 0.1% for 5 min and permeabilized for 10 min with 0.2% Triton X-100 and 0.1% BSA (Bovine Serum Albumin, Sigma) in PBS+Azide 0.1%. Saturation step is then realized by incubating cells during 30 min in PBS+Azide 0.1%+BSA1%. Primary antibodies are then added and the samples incubated at 4° C. overnight in PBS. Afterwards, samples are rinsed twice for 5 min with PBS+Azide 0.1% and further incubated with the corresponding secondary antibody together with phalloidin conjugated to Alexa Fluor 555 for 2 h RT. The chips were then rinsed twice with PBS+Azide 0.1%.
The following antibodies are used: rabbit polyclonal anti-MAP-2 (AB5622; 1/400, MILLIPORE), mouse monoclonal Anti-Bassoon SAP7F407; 1:400, Enzo LifeSciences). Species-specific secondary antibodies coupled to Alexa 350, 488 or 500 are used (1/500, Life Technologies, Inc., Gaithersburg, Md., USA). Phalloidin conjugated to Alexa Fluor 555 (1/500, EnzoLifeTechnologies) is used to stain F-actin.
Images are acquired with an Axio-observer Zl (Zeiss, Germany) fitted with a cooled CCD camera (CoolsnapHQ2, Ropert Scientific). The microscope is controlled with Metamorph and Micro-manager software. Images were analyzed using ImageJ software.

[2] = target: T1, Casp-2 (Homo sapiens, UniProt P42575); experiment: Caspase-2 inhibition assay for reversible inhibitors (IC50, Ki, dilution method); assay type: biochemical; details: for IC50: 30 minutes at 37° C. preincubation; for Ki: secondary plot of Lineweaver-Burk
T1 construct: the Caspase-2 and Caspase-3 are human recombinant active enzymes; purchased Enzo Life ALX-201-057-U100
T1 sequence (P42575 170-325 limits assumed): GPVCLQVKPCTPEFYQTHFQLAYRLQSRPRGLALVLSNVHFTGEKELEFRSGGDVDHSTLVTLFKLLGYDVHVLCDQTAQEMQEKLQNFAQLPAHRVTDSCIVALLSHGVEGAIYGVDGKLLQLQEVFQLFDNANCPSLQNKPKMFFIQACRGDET
T1 sequence (P42575 348-452 limits assumed): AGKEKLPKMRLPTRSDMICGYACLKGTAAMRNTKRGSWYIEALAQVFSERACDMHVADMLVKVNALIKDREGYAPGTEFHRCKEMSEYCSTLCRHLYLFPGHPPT
Method: (§1) A preliminary step in the characterization of an inhibitor is the determination of its IC50. The IC50 is the necessary concentration of an inhibitor to decrease the enzyme activity by 50% of its maximum and uninhibited value.
(§2) The compound, at different concentrations, is incubated with the enzyme and buffer for 30 minutes at 37° C. to allow formation of the Enzyme-Inhibitor complex. The reaction is initiated by addition of buffer and substrate, and then activity is measured over 15 minutes for the determination of initial velocities.
(§3) The enzyme and the inhibitor (or DMSO as control) are incubated for 30 minutes at 37° C. The complex thus formed is diluted to 100th in the buffer/substrate mixture and then the activity measurement is started over 20 minutes. The initial rate obtained for the DMSO represents the 100% activity and will serve as a reference for the quantification of the residual activity of the enzyme in the presence of the inhibitor.
(§4) The reaction is started over 20 minutes upon addition of the buffer-substrate mixture.
(§5) Initial velocity values in RFU·min^−1 are reduced to Specific Activity (SA)values (pmol/min/μg enzyme) from an AMC standard range (1 RFU→0.02 pmol).
(§6) The evolution of the ratio 1/SA as a function of 1/[S] makes it possible to obtain the so-called double-inverse graph of Lineweaver-Burk from equation 4 (eq.4) where Vmaxapp and KMapp are the parameters which vary according to the type inhibition and as a function of inhibitor concentration. The intersection of the lines obtained for increasing inhibitor concentrations makes it possible to distinguish different types of inhibitors.
A secondary graph, obtained from the values of the slopes of the Lineweaver-Burk plot as a function of the concentration of inhibitor, makes it possible to obtain the value of the Ki. Its value is given by the abscissa point at the origin.
The initial velocity V0 is expressed from equation 8 (eq.8), where Vmax is the maximum reaction rate (reached when the enzyme is saturated with substrate), [S] the substrate concentration, KM is the Michaelis-Menten constant (substrate concentration corresponding to Vmax/2), Ki is the dissociation constant which accounts for the affinity of the inhibitor for the enzyme.

[3] = target: T2, Caspase-3 (Homo sapiens, UniProt P42574); experiment: Caspase-3 inhibition assay for reversible inhibitors (IC50, Ki); assay type: biochemical
T2 construct: the Caspase-2 and Caspase-3 are human recombinant active enzymes; purchased R&D Systems 707-C3-010/CF
T2 sequence (P42574 29-175 limits assumed): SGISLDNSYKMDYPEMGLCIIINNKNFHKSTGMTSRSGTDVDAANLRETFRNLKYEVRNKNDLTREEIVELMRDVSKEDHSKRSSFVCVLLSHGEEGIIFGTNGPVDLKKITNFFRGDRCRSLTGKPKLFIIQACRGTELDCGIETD
T2 sequence (P42574 176-277 limits assumed): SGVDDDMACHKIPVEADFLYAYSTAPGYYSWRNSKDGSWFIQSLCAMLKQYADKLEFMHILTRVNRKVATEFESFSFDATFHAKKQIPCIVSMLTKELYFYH
Method: as §1, §2, §3, §4, §5, §6
A secondary graph, obtained from the values of the slopes of the Lineweaver-Burk plot as a function of the concentration of inhibitor, makes it possible to obtain the value of the Ki. Its value is given by the abscissa point at the origin. […]

[4] = target: T3, Caspase-2 (Homo sapiens, UniProt P42575); experiment: Caspase-2 inhibition assay for irreversible inhibitors (kinact/KI, continuous method); assay type: biochemical
T3 construct: the Caspase-2 and Caspase-3 are human recombinant active enzymes; purchased Enzo Life ALX-201-057-U100
T3 sequence (P42575 170-325 limits assumed): T1 sequence (P42575 170-325 limits assumed)
T3 sequence (P42575 348-452 limits assumed): T1 sequence (P42575 348-452 limits assumed)
Method: The efficiency of the comparative compound Δ2Me-TRP601, that is an already known group II Caspase inhibitor (inhibitor of Caspase-2, Caspase-3 and Caspase-7), has been assessed by a similar protocol described in Chauvier et al., 2011 Cell Death Dis 2011, 2:e203.
In this example, the Caspase-2 and Caspase-3 are human recombinant active enzymes that are respectively provided by Enzo Life® (ALX-201-057-U100) and R&D Systems® (707-C3-010/CF).
Caspase-2 is used at a final concentration of 0.1 nM in a “Caspase-2 buffer” containing 20 mM HEPES (pH 7.4), 5 mM DTT, 2 mM EDTA, 0.1% CHAPS and 800 mM succinate. Caspase-3 is used at a final concentration of 0.5 nM in a “Caspase-3 buffer” containing 20 mM HEPES (pH 7.4), 0.1% CHAPS, 5 mM DTT, and 2 mM EDTA.
The peptide substrates used for the enzymatic activity measurements are Ac-DEVD-AMC and Ac-VDVAD-AMC commercialized by EnzoLife® (respectively referenced ALX-260-031-M005 and ALX-260-060-M005). They are fluorogenic due to the presence of their AMC (7-amino-4-methylcoumarin) end group. The releasing of AMC enables to follow the enzymatic activity in fluorescence unit RFU over time in a 96-wells microplate.
The fluorescence values are measured at 37° C. with a spectrofluorometer with a microplate reader BMG FLUOstar OPTIMA. This apparatus is driven by the software Biolise® and is equipped with thermoelectric cooling device by Peltier effect. The mathematical analyses of the experimental data are done with the software Kaleidagraph®.
The inhibitory properties of the tested compounds are evaluated by the determination of the kinact/KI ratio regarding either Caspase-2 or Caspase-3 wherein: • kinact is the maximal inactivation rate constant, and • KI is the dissociation constant according to:
Said ratio is measured according to the continuous method (Allison R D. Curr Protoc Protein Sci. 2001 May; Chapter 3:Unit 3.5.; Chauvier et al., 2011 Cell Death Dis 2:e203; Tan et al., J Med Chem 2015, […]).
Briefly, Caspases activities were determined by monitoring the hydrolysis of fluorogenic substrates (λexc=355 nm, λem=460 nm) as a function of time, in the presence of untreated Caspases (control) or Caspases that had been incubated with a test compound, for 30 min minimum at 37° C. using a BMG Fluostar microplate reader (black 96-well microplates) and the initial velocity (V0) was determined from the linear portion of the progress curve.
Substrates and compounds were previously dissolved in DMSO at 10 mM, with the final solvent concentration kept at lower 4% (v/v). V0, relative velocities, KM and IC50 were determined from experimental data using Mars data Analysis 2.0 and Kaleidagraph softwares.
Inhibitor binding affinity (dissociation constant, KI) and first-order rate constant (k3) parameters were determined for Caspase-2 and Caspase-3 using the progress curve method. The ratio k3/KI was obtained by fitting the experimental data to the equations (F.U., fluorescence unit): […]
A continuous method of determination of the kinact/KI ratio was used for evaluating the inhibitory activity of the tested compounds against Caspase-2 and Caspase-3.
The reaction mixture is prepared by letting the enzyme and the buffer incubate at 37° C.
The tested inhibitory compounds are prepared at different concentrations (¼ IC50; ½ IC50; IC50; 2 IC50; 4 IC50) and put in the microplate.
Then the reaction mixture comprising the enzyme, the buffer and the substrate is rapidly added in the wells.
The activities of the enzyme are measured between 45 and 60 minutes.
The RFU (Relative Fluorescence Units)=f(times) curves are traced for each concentration of tested molecule according to the following equation: ((((−V0)*(exp(−kobs*m0)))+V0)/kobs*)+RFU0
in which: • V0 corresponds to the initial rate (RFU·s^−1) in the concentration of 0 of the tested inhibitory compound; • kobs is the inactivation rate constant; • RFU0 is the fluorescence value at t=0 min; and • m0 is the variable i.e. the inhibitor concentration.

Aβ alone: Oligomeric form of Aβ1-42 (Tocris Bioscience) used to intoxicate neurons [reference compound]
decrease in synapse number [1]: ~50%

CC(=O)N[C@H](C(=O)N[C@@H](CC(=O)O)C(=O)N[C@H](C(=O)N[C@@H](C)C(=O)N[C@H](C=O)CC(=O)O)C(C)C)C(C)C [Ac-VDVAD-CHO] (Ac-VDVAD-aldehyde)
Selectivity Indexes (KiCasp3/KiCasp2) [2]: 1.3
IC50 [2]: 6.9 nM
Ki [2]: 6.31 nM
IC50 ([3]; 30 minutes at 37° C. preincubation): 7.23 nM
Ki ([3]; secondary plot of Lineweaver-Burk): 7.68 nM

CC(=O)N[C@@H](CC(=O)O)C(=O)N[C@@H](CCC(=O)O)C(=O)N[C@H](C(=O)N[C@H](C=O)CC(=O)O)C(C)C [Ac-DEVD-CHO]
IC50 [2]: 3910 ± 189 nM
Ki [2]: 3220 nM

CC(C)[C@H](NC(=O)c1ccc2ccccc2n1)C(=O)N[C@@H](CC(=O)O)C(=O)N[C@H](C(=O)N1CC[C@H](CC(C)(C)C)[C@H]1C(=O)N[C@@H](CC(=O)O)C(=O)COc1c(F)cccc1F)C(C)C (single isomer, unassigned) [Compound 2 enantiomer b]
k3/KI Casp2 ([4]; human recombinant Caspase-2 0.1 nM, 37° C.): 1 720 M^−1 · s^−1
Selectivity ratio (C2/C3) (symbol) ([4]; ratio of k3/KI Casp2 to Casp3): +++ (+++: as no inhibitory activity is detectable toward casp3, selectivity is very important (>>1000).)

From patent US11407741B2, “Compounds and their use as selective inhibitors of caspase-2” (priority 2017, dated 2022)
